Measured values as given in US11103548B2, “Treatment of endometriosis, angiogenesis and/or endometrial lesion growth” (priority 2013, dated 2021).
No end group written: not given here. *: point of attachment. FITC = O=C1OC2(c3ccc(O)cc3Oc3cc(O)ccc32)c2ccc(NC(=S)*)cc21

Key:
fertility of the animals = assay: fertility by mating in humanized animal models of endometriosis after treatment; assay type: in vivo; conditions: mating after endometriosis is inhibited and treatment is stopped
Procedure: The ability of ST011 to inhibit endometriosis without effecting fertility can be confirmed in, for example, animal model of endometriosis. For these experiments, humanized animal models of endometriosis first can be treated with ST011 and once endometriosis is inhibited and treatment is stopped, fertility of the animals is tested by mating.

CRL 7566 cells = assay: intracellular permeability by fluorescent microscopy; assay type: cell-based; conditions: 20 micro molar FITC tagged peptide, after 6 hours
Procedure: To further examine the utility of the ST011 peptide as a therapeutic tool against angiogenesis, endometriosis and/or endometrial lesion growth, this peptide was further examined to observe its intracellular permeability in endometrial cells. For these experiments, GYGRKKRRQRRR (TAT) tagged GNSALHVASQHG (ST011) (SEQ ID NO: 10) and a control peptide GYGRKKRRQRRR (TAT CTL; SEQ ID NO: 11) were chemically synthesized. Each peptide contained FITC on its N-terminal end. These peptides were dissolved in 2% DMSO in PBS (pH 7.3) and applied directly on the Petri dish containing model cells (CRL 7566 or HUVECs) at required concentrations. Active internalization of peptide was observed using fluorescent microscopy. Three independent experiments were performed with duplicates of each condition. Model cell line for endometriosis, CRL 7566 cells (FIG. 2) received 20 micro molar FITC tagged TAT-ST011. After 6 hours cells were examined under fluorescent microscope.

SNCG = molecular target: T1, SNCG (Homo sapiens, UniProt O76070); assay: co-immunoprecipitation (co-IP) of peptide with SNCG in MCF7-SNCG cells; assay type: binding; conditions: FITC tagged peptide, 8 hour after treatment, IP with anti-SNCG antibody, western blot with anti-FITC antibody
T1 construct: expressed in transfected cells; host or cells: MCF7-SNCG cells
T1 sequence (O76070 whole entry): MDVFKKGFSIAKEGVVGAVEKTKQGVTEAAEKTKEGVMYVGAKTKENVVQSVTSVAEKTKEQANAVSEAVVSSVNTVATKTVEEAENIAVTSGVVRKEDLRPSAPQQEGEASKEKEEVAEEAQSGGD
Procedure: In vivo binding of ST011 to SNCG was examined in co-immunoprecipitation (co-IP) experiments (See FIG. 1). MCF7-SNCG cells were treated with FITC tagged […] (TAT)-ST011 (SEQ ID NO: 10) (lane 1 of FIG. 1), or FITC tagged YGRKKRRQRRR (TAT) alone (SEQ ID NO: 11) (lane 2 of FIG. 1) or no treatment control (lane 3 of FIG. 1). 8 hour after treatment, cell lysates were prepared and IP with anti-SNCG antibody was conducted. The presence of TAT-ST011 in SNCG IP complexes obtained from different treated cells was detected by western blot using anti-FITC antibody. […] Thus, FIG. 1 provides further evidence that SNCG is capable of immunoprecipitating TAT-ST011.

HUVECs [1] = assay: in vitro angiogenic tube formation on gel matrix; assay type: cell-based
Procedure: Next, effect of TAT-ST011 peptide GNSALHVASQHG (SEQ ID NO: 2) on angiogenesis and tube formation of HUVEC cell was evaluated.
Extracellular matrix gel solution (Cell biolabs inc, San Diego, Calif., USA) had been thawed overnight at 4° C. and approximately […] of ECM gel solution was added to each well of a 96 well plate. The plate was incubated at 37° C. for 1 hour. HUVECs were trypsinized from culture and approximately 20,000 cells were added per well to the ECM containing 96 well plate. Each well was treated with […] of TAT-P12 at a concentration of 600 ng/mL, 300 ng/mL, 150 ng/mL, 5 ng/mL or 2.5 ng/mL. PBS was used as a control. The tube formation was visualized using a spinning disc confocal microscope and the images were stacked together using ImageJ.

[2] = tested on: human endometriotic lesions; assay: mouse xenograft model of endometriosis, gross observation of lesion growth and vascularization; assay type: in vivo, mice; conditions: 20 mg/kg daily intraperitoneal for 21 days, necropsy one week after treatment, versus saline
Procedure: Gross observation of endometriotic lesion growth and vascularization in vivo was performed using an animal model. […] The peritoneal cavity of the mice was exposed using surgical tools and the endometriotic lesions were located manually.
A mouse xenograft model was developed using Rag2^−/−/I12rg^−/− double knockout mice on a BalbC background.
Since human estrogen is important for the growth of human endometriotic lesions the mice (n=12) had 60-day release 13-estradiol 17-acetate pellets (15 mg/pellet) (Innovative Research of America, Sarasota, Fla., USA) subcutaneously implanted. The mice were anaesthetized with isofluorane (Pharmaceutical Partners of Canada, Richmond Hill, ON, Canada).
Five days after the implantation of the estrogen 5 pellet, eutopic endometrium obtained from hysterectomy and endometrial biopsies performed at Kingston General Hospital was implanted in the peritoneal cavity of the mice. The obtained endometrium was cut into equal pieces and washed with PBS. The pieces of endometrium were kept in PBS on ice until the surgeries were performed. The mice were anaesthetized in an isofluorane chamber and a small incision was made in their abdomen. Two to three lesions were adhered on the left side of the peritoneal cavity using Vetbond tissue adhesive (3M, St. Paul, Minn., USA) and one or two pieces were dropped freely in the cavity. […]

HUVECs [3] = assay: WST-1 proliferation assay; assay type: cell-based; conditions: 600 ng/mL to 2.5 ng/mL, 48 hours of treatment, PBS control
Procedure: Endothelial cells are an integral part of blood vessels and the proliferation of endothelial cells is extremely important for angiogenesis. Therefore, to assess the role of α-synuclein in endothelial cell proliferation, HUVECs were plated and treated with various concentrations of TATST011 peptide GNSALHVASQHG (SEQ ID NO: 2) ranging from 600 ng/mL to 2.5 ng/mL using PBS as a control. In order to measure the effect of TAT-ST011 peptide GNSALHVASQHG (SEQ ID NO: 2) on HUVEC proliferation a WST-1 proliferation assay was performed.
HUVECs and epithelial cells were trypsinized, suspended in cultured medium and counted. Approximately 10,000 cells per well were seeded onto a 96 well plate. After allowing 24 hours for attachment in 37° C., the cells were treated with either 600 ng/mL, 300 ng/mL, 150 ng/mL, 5 ng/mL or 2.5 ng/mL of TAT-P12 using phosphate buffer saline (PBS, (Sigma Chemical Co., St. Louis, Mo., USA) as a control. The drug was suspended in RPMI. The plates were incubated in 37° C. for 24 or 48 hours after which 10 μL of WST-1 (Roche, Laval, QC, Canada) was added to each well. The plate was then incubated in 37° C. for another 4 hours. The absorbance of the wells was measured at a wavelength of 490 nm or at 510 nm.

## Ac-GNSALHVASQHG-NH2 [ST011 peptide, GNSALHVASQHG]
Fertility of the animals
  effect on fertility of the animals: no effect of ST011 peptide on the fertility

## GYGRKKRRQRRR (TAT) tagged GNSALHVASQHG (ST011) [TAT-ST011]
CRL 7566 cells
  internalization of peptide into endometrial cells: capable of going inside endometrial cells
SNCG
  co-precipitation with SNCG (binding to SNCG): co-precipitate with SNCG
HUVECs [1]; 300 ng/mL and 600 ng/mL
  morphology of the HUVECs (cell lysis): caused the cells to lyse
HUVECs [1]; HUVECs on gel matrix
  concentration that inhibited tube formation and also changed the morphology of the HUVECs: ≥ 5 ng/mL
HUVECs [1]; various concentrations (600 to 2.5 ng/mL), confocal microscopy
  tube formation / branching of HUVECs: dose dependent inhibition of tube formation
[2]
  endometriotic lesion growth: inhibited growth of lesion
  vascularization of the lesions: prevented the formation of blood vessels to the lesions
HUVECs [3]
  proliferation of HUVECs: dose dependently decreased the proliferation of HUVECs

## GYGRKKRRQRRR ({FITC}-GYGRKKRRQRRR) [TAT alone, control peptide … (TAT CTL, reference compound]
SNCG
  co-precipitation with SNCG (binding to SNCG): not TAT alone is found to co-precipitate with SNCG
